In the supplement of paper PMC10307832:

Experiments:
Experiment in all cases: relative viability (nuclei count vs DMSO), 5 days (fraction); higher = more cells survive
RU-SKI 43 + Alpelisib = compound: CC[C@@H](C)CNCC(=O)N1CCC2=C([C@@H]1COC3=CC=CC(=C3)C)C=CS2 [RU-SKI 43] + Cc1nc(NC(=O)N2CCC[C@H]2C(N)=O)sc1-c1ccnc(C(C)(C)C(F)(F)F)c1 [Alpelisib] (partner 2 µM)
Summary of the method: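 For relative viability, nuclei counts in treated wells were divided by those in vehicle wells. Lung cancer cell lines had been pin-tool dosed in 1536-well plates the day after seeding and cultured for 5 days, then fixed and stained in one step (final 0.05% Triton X-100, 1% formaldehyde, 1 ug/ml Hoechst) and imaged at 4×. Doses were one drug alone or a fixed anchor-drug dose plus five library-drug doses (not always all listed) in √10 steps, and values are duplicate-plate medians.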

MK-8033 = compound: Cn1cc(-c2cnc3ccc4ccc(CS(=O)(=O)NCc5ccccn5)cc4c(=O)c3c2)cn1 [MK-8033]
Summary of the method: (§1)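 Viability is treated-well nuclei as a fraction of vehicle-well nuclei, reported as the median across plates. Before counting, lung cancer cell lines were kept overnight at 37 °C in 1536-well plates, pinned with five √10-spaced library-drug doses on vehicle-anchored plates, and left 5 days without medium change, then fixed, permeabilised and Hoechst-stained in one step, imaged at 4× and counted by MetaXpress. A plate passed only if control CV was below 25% and at least one doubling occurred.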

RU-SKI 43 = compound: CC[C@@H](C)CNCC(=O)N1CCC2=C([C@@H]1COC3=CC=CC(=C3)C)C=CS2 [RU-SKI 43]
Summary of the method: as §1

Irinotecan = compound: CCc1c2c(nc3ccc(OC(=O)N4CCC(N5CCCCC5)CC4)cc13)-c1cc3c(c(=O)n1C2)COC(=O)[C@]3(O)CC [Irinotecan]
Summary of the method: as §1

NCI-H1395
relative viability (RU-SKI 43 + Alpelisib; first compound 0.1 µM): 1.14 | relative viability (RU-SKI 43 + Alpelisib; first compound 0.3162 µM): 1.38 | relative viability (RU-SKI 43 + Alpelisib; first compound 1 µM): 0.936 | relative viability (RU-SKI 43 + Alpelisib; first compound 3.162 µM): 1.29 | relative viability (RU-SKI 43 + Alpelisib; first compound 10 µM): 0.836 | relative viability (MK-8033; 0.02 µM): 0.941 | relative viability (MK-8033; 0.06325 µM): 0.77 | relative viability (MK-8033; 0.2 µM): 0.812 | relative viability (MK-8033; 0.6325 µM): 0.906 | relative viability (MK-8033; 2 µM): 0.867 | relative viability (RU-SKI 43; 0.1 µM): 0.978 | relative viability (RU-SKI 43; 0.3162 µM): 0.928 | relative viability (RU-SKI 43; 1 µM): 1.05 | relative viability (RU-SKI 43; 3.162 µM): 0.899 | relative viability (RU-SKI 43; 10 µM): 0.885 | relative viability (Irinotecan; 2 µM): 0.9 | relative viability (Irinotecan; 6.325 µM): 0.504 | relative viability (Irinotecan; 20 µM): 0.411

HCC-44
relative viability (RU-SKI 43 + Alpelisib; first compound 0.1 µM): 0.73 | relative viability (RU-SKI 43 + Alpelisib; first compound 0.3162 µM): 0.72 | relative viability (RU-SKI 43 + Alpelisib; first compound 1 µM): 0.901 | relative viability (RU-SKI 43 + Alpelisib; first compound 3.162 µM): 0.875 | relative viability (RU-SKI 43 + Alpelisib; first compound 10 µM): 0.802 | relative viability (MK-8033; 0.02 µM): 1.05 | relative viability (MK-8033; 0.06325 µM): 1.02 | relative viability (MK-8033; 0.2 µM): 0.949 | relative viability (MK-8033; 0.6325 µM): 1.01 | relative viability (MK-8033; 2 µM): 0.957 | relative viability (RU-SKI 43; 0.1 µM): 1.05 | relative viability (RU-SKI 43; 0.3162 µM): 0.972 | relative viability (RU-SKI 43; 1 µM): 1.09 | relative viability (RU-SKI 43; 3.162 µM): 0.933 | relative viability (RU-SKI 43; 10 µM): 0.969 | relative viability (Irinotecan; 0.6325 µM): 0.718 | relative viability (Irinotecan; 2 µM): 0.915 | relative viability (Irinotecan; 6.325 µM): 0.409 | relative viability (Irinotecan; 20 µM): 0.331

NCI-H1623
relative viability (MK-8033; 0.02 µM): 0.87 | relative viability (MK-8033; 0.06325 µM): 0.96 | relative viability (MK-8033; 0.2 µM): 0.839 | relative viability (MK-8033; 0.6325 µM): 0.992 | relative viability (MK-8033; 2 µM): 1.02 | relative viability (RU-SKI 43; 0.1 µM): 1.02 | relative viability (RU-SKI 43; 0.3162 µM): 0.958 | relative viability (RU-SKI 43; 1 µM): 1.03 | relative viability (RU-SKI 43; 3.162 µM): 1.06 | relative viability (RU-SKI 43; 10 µM): 0.883 | relative viability (Irinotecan; 0.6325 µM): 0.866 | relative viability (Irinotecan; 2 µM): 0.703 | relative viability (Irinotecan; 6.325 µM): 0.275 | relative viability (Irinotecan; 20 µM): 0.297

NCI-H522
relative viability (MK-8033; 0.02 µM): 0.983 | relative viability (MK-8033; 0.06325 µM): 0.793 | relative viability (MK-8033; 0.2 µM): 0.954 | relative viability (MK-8033; 0.6325 µM): 1.05 | relative viability (MK-8033; 2 µM): 0.959 | relative viability (RU-SKI 43; 0.1 µM): 1.02 | relative viability (RU-SKI 43; 0.3162 µM): 1.05 | relative viability (RU-SKI 43; 1 µM): 1.16 | relative viability (RU-SKI 43; 3.162 µM): 0.982 | relative viability (RU-SKI 43; 10 µM): 1.17 | relative viability (Irinotecan; 0.6325 µM): 0.694 | relative viability (Irinotecan; 2 µM): 0.844 | relative viability (Irinotecan; 6.325 µM): 0.52 | relative viability (Irinotecan; 20 µM): 0.639

NCI-H1650
relative viability (MK-8033; 0.02 µM): 0.942 | relative viability (MK-8033; 0.06325 µM): 0.714 | relative viability (MK-8033; 0.2 µM): 0.853 | relative viability (MK-8033; 0.6325 µM): 0.842 | relative viability (MK-8033; 2 µM): 0.848 | relative viability (RU-SKI 43; 0.1 µM): 0.942 | relative viability (RU-SKI 43; 0.3162 µM): 0.999 | relative viability (RU-SKI 43; 1 µM): 1.04 | relative viability (RU-SKI 43; 3.162 µM): 0.977 | relative viability (RU-SKI 43; 10 µM): 0.853 | relative viability (Irinotecan; 0.6325 µM): 0.677 | relative viability (Irinotecan; 2 µM): 0.836 | relative viability (Irinotecan; 6.325 µM): 0.489 | relative viability (Irinotecan; 20 µM): 0.21

NCI-H1648
relative viability (MK-8033; 0.02 µM): 0.724 | relative viability (MK-8033; 0.06325 µM): 0.698 | relative viability (MK-8033; 0.2 µM): 0.846 | relative viability (MK-8033; 0.6325 µM): 0.832 | relative viability (MK-8033; 2 µM): 0.956 | relative viability (RU-SKI 43; 0.1 µM): 0.943 | relative viability (RU-SKI 43; 0.3162 µM): 0.809 | relative viability (RU-SKI 43; 1 µM): 1.03 | relative viability (RU-SKI 43; 3.162 µM): 0.853 | relative viability (RU-SKI 43; 10 µM): 0.779 | relative viability (Irinotecan; 0.6325 µM): 1.03 | relative viability (Irinotecan; 2 µM): 0.712 | relative viability (Irinotecan; 6.325 µM): 0.637 | relative viability (Irinotecan; 20 µM): 0.278

SW 900
relative viability (MK-8033; 0.02 µM): 0.884 | relative viability (MK-8033; 0.06325 µM): 0.684 | relative viability (MK-8033; 0.2 µM): 0.685 | relative viability (MK-8033; 0.6325 µM): 1.03 | relative viability (MK-8033; 2 µM): 0.789 | relative viability (RU-SKI 43; 0.1 µM): 0.716 | relative viability (RU-SKI 43; 0.3162 µM): 0.93 | relative viability (RU-SKI 43; 1 µM): 1.02 | relative viability (RU-SKI 43; 3.162 µM): 0.683 | relative viability (RU-SKI 43; 10 µM): 0.62 | relative viability (Irinotecan; 0.6325 µM): 0.51 | relative viability (Irinotecan; 2 µM): 0.787 | relative viability (Irinotecan; 6.325 µM): 0.497 | relative viability (Irinotecan; 20 µM): 0.432

NCI-H2342
relative viability (MK-8033; 0.02 µM): 0.988 | relative viability (MK-8033; 0.06325 µM): 1.11 | relative viability (MK-8033; 0.2 µM): 1.12 | relative viability (MK-8033; 0.6325 µM): 1.13 | relative viability (MK-8033; 2 µM): 1.13 | relative viability (RU-SKI 43; 0.1 µM): 0.895 | relative viability (RU-SKI 43; 0.3162 µM): 0.773 | relative viability (RU-SKI 43; 1 µM): 0.972 | relative viability (RU-SKI 43; 3.162 µM): 1.18 | relative viability (RU-SKI 43; 10 µM): 0.989 | relative viability (Irinotecan; 0.6325 µM): 0.938 | relative viability (Irinotecan; 2 µM): 0.97 | relative viability (Irinotecan; 6.325 µM): 1 | relative viability (Irinotecan; 20 µM): 0.575

ChaGo-K-1
relative viability (MK-8033; 0.02 µM): 1.03 | relative viability (MK-8033; 0.06325 µM): 0.907 | relative viability (MK-8033; 0.2 µM): 0.941 | relative viability (MK-8033; 0.6325 µM): 1.01 | relative viability (MK-8033; 2 µM): 0.873 | relative viability (RU-SKI 43; 0.1 µM): 1.02 | relative viability (RU-SKI 43; 0.3162 µM): 1.02 | relative viability (RU-SKI 43; 1 µM): 1.1 | relative viability (RU-SKI 43; 3.162 µM): 0.988 | relative viability (RU-SKI 43; 10 µM): 0.946 | relative viability (Irinotecan; 0.6325 µM): 0.759 | relative viability (Irinotecan; 2 µM): 0.7 | relative viability (Irinotecan; 6.325 µM): 0.295 | relative viability (Irinotecan; 20 µM): 0.261
